The inhibition is the percentage by which the read-out fell short of the control. By IC50 is commonly meant the concentration needed to halve the response being measured. A low value points to greater potency in that assay.

In one test the target is BRAF V600E (Homo sapiens (Human), UniProt P15056, V600E). Nature of the test: Inhibitory activity against kinase BRAF V600E, Z'-LYTE method (Invitrogen). Format: biochemical. As to conditions: 1 μM compound; read-out: Inhibition (% inhibition at 1 μM) against BRAF V600E. The procedure, abridged:
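FRET-based Z′-LYTE peptide-phosphorylation assay in 50 mM HEPES pH 7.5, 0.01% BRIJ-35, 10 mM MgCl2, 1 mM EGTA; kinase reaction 60 min at room temperature, then 60 min development before fluorescence read. IC50 from concentration vs % inhibition; single-point % inhibition tested at 1 μM.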

The target of a further test is BRAF (Homo sapiens (Human), UniProt P15056). The test can be described thus: Inhibitory activity against kinase BRAF, Z'-LYTE method (Invitrogen). As to conditions: 1 μM compound. Type of test: biochemical. The procedure, abridged: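 Z′-LYTE FRET kinase assay in 50 mM HEPES pH 7.5, 10 mM MgCl2, 1 mM EGTA, 0.01% Brij-35, with a 60 min RT kinase reaction, then 60 min development. IC50 was taken from % inhibition versus concentration. Values may be given as % inhibition at 1 μM.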

Another test has as its system A375 cells. The test can be described thus: Inhibition of cancer cell growth, MTT or MTS assay, A375. Format: cell-based. As to conditions: Homo sapiens, A-375; 72 h incubation. In outline:
(§1)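 Cells in RPMI 1640 with 10% FBS were seeded at ~2000 (A375) or 4000 (A549, Colo205) per well, grown 24 h, then exposed to compound 72 h at 1% final DMSO. Read-out by MTT (570 nm) or MTS (490 nm). IC50 from concentration vs percent inhibition, triplicates.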
For orientation: Formazan colour is commonly taken as a measure of viable cells.

The test system of another test is Colo205 tumor xenograft. Nature of the test: Inhibition of tumor growth in Colo205 tumor xenograft model. Format: in vivo, BALB/c female nude mice. As to conditions: 30 mg/kg, qd × 14, i.p.; for Tumor Volume Post-treatment: after treatment; for Tumor Volume Pre-treatment: before treatment. How it is done:
Cells were implanted in BALB/c female nude mice and grown as tumor xenografts. When tumors achieved 120-200 mm^3, mice were assigned into treatment and control groups using randomized block design based upon their tumor volumes. Each group contained 6 tumor-bearing mice. Tumors were measured twice weekly in two dimensions using a caliper, and the tumor volume was calculated from two-dimensional measurements using the equation V=0.5×a×b^2 where a and b are the long and short diameters of the tumor, respectively. Relative tumor volume (RTV) was defined as TVt/TVi, the ratio of the volume on a given day (TVt) and the volume at the start of treatment (TVi). Relative tumor growth rate (T/C) was defined as RTVT/RTVC, the ratio of relative tumor volume of treatment group (RTVT) and relative tumor volume of control group (RTVC) on a given day. Inhibition of tumor growth in a Colo205 tumor xenograft model is shown below in Table 10 for a compound of Table 1.

Another test has as its target KDR (VEGFR2) (Homo sapiens (Human), UniProt P35968). Nature of the test: Inhibitory activity against kinase KDR, Z'-LYTE method (Invitrogen). Format: biochemical. As to conditions: 1 μM compound; read-out: Inhibition (% inhibition at 1 μM) against KDR. The procedure, abridged: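 Human KDR (VEGFR2) kinase inhibition was measured with Invitrogen's Z′-LYTE® method. A 2× mixture of KDR and Tyr 01 peptide is made in 50 mM HEPES pH 7.5, 0.01% BRIJ-35, 10 mM MgCl2, 1 mM EGTA. Each 10 μL reaction holds 0.5-11.7 ng enzyme and 2 μM Tyr 01. It incubates for 1 hour, then 5 μL of Development Reagent B diluted 1:256 is added.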

The subject of a further test is A549 cells. Nature of the test: Inhibition of cancer cell growth, MTT or MTS assay, A549. Format: cell-based. Conditions: Homo sapiens, 72 h incubation. The procedure, abridged: as §1
The next test relates to Colo205 cells. The test can be described thus: Inhibition of cancer cell growth, MTT or MTS assay, Colo205. Conditions: Homo sapiens, COLO 205; 72 h incubation. Format: cell-based. How it is done:
Inhibition of cell growth by compounds was measured using MTT or MTS assay. Tumor cell lines were purchased from ATCC (American Type Culture Collection, Manassas, Va.). All cell lines were maintained in RPMI 1640 (Hyclone) supplemented with 10% fetal bovine serum (FBS, Hyclone), glutamine (2 mM, Hyclone), and antibiotics (penicillin 100 U/mL and streptomycin 50 μg/mL) at 37° C. in a humidified atmosphere of 5% CO2 in air. Taxol (as a positive control, Sigma) and compounds were dissolved in DMSO (Sigma), and the final concentration of DMSO in the medium was 1%. Tumor cells were plated in 96-well plates at densities of about 2000 (A375) or 4000 (A549 and Colo205) cells/well of a 96-well plate and allowed to adhere/grow for 24 h. They were then treated with various concentrations of drug and incubated for 72 h. For MTT method, medium was then removed by inverting and tapping the plates. 100 μL of MTT (0.5 mg/ml) was added to each well followed by an incubated at 37° C. for 4 h. MTT was then removed and 200 μL of DMSO was added to each well, and the ODs at 570 nm were measured after a 5 second shaking cycle in a 96-well spectrophotometer. For MTS method, 20 μL MTS (CellTiter 96 Aqueous One Solution, Promega) was added to each well followed by an incubated at 37° C. for 2-4 h, solutions were then directly put in a 96-well spectrophotometer, and the ODs at 490 nm were measured.
All concentrations of compounds were tested in triplicate and controls were averaged over 4 wells. IC50 was calculated by plotting the concentration of compound vs the percentage of inhibition in treated wells using GraphPad Prism 5. […] The scale utilized in Tables […] is as follows: +++ less than 1000 nM; ++ between 1000 nM and 5000 nM; and + greater than 5000 nM. The scale utilized in Table 8 is as follows: +++ less than 2000 nM; ++ between 2000 nM and 5000 nM; and + greater than 5000 nM.

Chain of BRAF V600E (P15056 whole entry V600E): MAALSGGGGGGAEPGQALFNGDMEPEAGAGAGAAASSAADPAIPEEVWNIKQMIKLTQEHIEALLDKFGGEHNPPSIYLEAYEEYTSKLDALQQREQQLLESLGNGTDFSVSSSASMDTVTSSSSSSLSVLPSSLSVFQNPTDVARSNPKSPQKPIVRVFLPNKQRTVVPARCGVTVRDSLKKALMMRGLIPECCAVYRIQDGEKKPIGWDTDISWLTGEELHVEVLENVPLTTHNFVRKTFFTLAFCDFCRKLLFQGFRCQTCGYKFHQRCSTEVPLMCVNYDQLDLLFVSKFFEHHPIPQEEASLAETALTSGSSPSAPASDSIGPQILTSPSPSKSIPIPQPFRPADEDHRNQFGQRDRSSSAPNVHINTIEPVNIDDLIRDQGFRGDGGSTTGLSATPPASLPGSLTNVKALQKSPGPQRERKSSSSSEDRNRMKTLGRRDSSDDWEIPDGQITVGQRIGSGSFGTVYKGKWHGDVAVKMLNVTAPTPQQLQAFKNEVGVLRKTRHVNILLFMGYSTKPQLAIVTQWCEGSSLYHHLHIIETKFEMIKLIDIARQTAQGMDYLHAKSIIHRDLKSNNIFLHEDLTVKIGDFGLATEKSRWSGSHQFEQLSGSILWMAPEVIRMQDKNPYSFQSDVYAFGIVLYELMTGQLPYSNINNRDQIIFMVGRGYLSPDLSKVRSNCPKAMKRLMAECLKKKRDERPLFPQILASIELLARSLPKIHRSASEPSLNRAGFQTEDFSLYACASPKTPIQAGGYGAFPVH
Chain of BRAF (P15056 whole entry): as the sequence (P15056 whole entry V600E) above, with E600V counted along it
Chain of KDR (VEGFR2) (P35968 20-1356): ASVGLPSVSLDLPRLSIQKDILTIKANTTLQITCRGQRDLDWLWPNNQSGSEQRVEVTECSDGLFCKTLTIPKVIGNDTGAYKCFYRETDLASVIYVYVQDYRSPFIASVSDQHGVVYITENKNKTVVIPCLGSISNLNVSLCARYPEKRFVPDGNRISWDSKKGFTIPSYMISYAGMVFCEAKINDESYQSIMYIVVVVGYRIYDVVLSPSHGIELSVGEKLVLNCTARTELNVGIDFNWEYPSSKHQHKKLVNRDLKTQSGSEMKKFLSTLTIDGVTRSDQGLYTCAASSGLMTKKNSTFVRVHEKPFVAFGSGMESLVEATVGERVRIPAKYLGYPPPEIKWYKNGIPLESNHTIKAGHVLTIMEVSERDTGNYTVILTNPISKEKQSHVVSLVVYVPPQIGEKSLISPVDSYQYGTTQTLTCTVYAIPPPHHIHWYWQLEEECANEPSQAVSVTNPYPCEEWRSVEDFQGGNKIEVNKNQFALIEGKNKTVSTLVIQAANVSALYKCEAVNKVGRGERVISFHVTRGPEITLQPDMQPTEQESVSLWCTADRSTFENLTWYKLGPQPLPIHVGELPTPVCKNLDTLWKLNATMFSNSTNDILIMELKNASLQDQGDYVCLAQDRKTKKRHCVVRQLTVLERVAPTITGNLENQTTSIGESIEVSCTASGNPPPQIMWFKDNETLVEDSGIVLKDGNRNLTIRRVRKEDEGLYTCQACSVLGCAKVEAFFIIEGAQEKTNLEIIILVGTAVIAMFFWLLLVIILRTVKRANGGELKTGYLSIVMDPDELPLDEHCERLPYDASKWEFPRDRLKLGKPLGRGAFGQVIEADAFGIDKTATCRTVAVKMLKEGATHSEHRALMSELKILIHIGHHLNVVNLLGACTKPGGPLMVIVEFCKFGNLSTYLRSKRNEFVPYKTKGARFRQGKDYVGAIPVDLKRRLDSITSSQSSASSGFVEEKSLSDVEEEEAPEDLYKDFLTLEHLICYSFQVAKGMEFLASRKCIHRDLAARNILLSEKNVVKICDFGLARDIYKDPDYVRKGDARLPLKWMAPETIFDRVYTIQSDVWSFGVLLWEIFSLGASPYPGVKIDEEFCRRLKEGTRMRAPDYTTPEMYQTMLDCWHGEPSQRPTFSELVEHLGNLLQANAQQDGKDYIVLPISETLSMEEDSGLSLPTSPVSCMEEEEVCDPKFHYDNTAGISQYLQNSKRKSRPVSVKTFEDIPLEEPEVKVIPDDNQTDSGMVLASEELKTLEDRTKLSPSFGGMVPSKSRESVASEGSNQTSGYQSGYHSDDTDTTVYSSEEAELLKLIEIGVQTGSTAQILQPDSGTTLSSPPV

On to `O=C(Nc1ccc(Oc2ccc3ncc(N4CCNCC4)nc3c2)cc1)Nc1ccc(F)c(C(F)(F)F)c1` [Compound C087, 1-(4-fluoro-3-(trifluoromethyl)phenyl)-3-(4-((3-(piperazin-1-yl)quinoxalin-6-yl)oxy)phenyl)urea], for which the inhibition at 1 µM on BRAF V600E was more than 89%; against BRAF, 70 to 89%; at KDR (VEGFR2), more than 89%. Further, the IC50 was 1000 to 5000 nM in the test on A375 cells, less than 2000 nM in the test with A549 cells and 1000 to 5000 nM with Colo205 cells. Besides, in the test with Colo205 tumor xenograft, the “T/C (relative tumor growth rate)” value is reported as 81%. Further, in the test with Colo205 tumor xenograft, the “Tumor Volume Post-treatment” value was 796.35 mm^3. Besides, the “Tumor Volume Pre-treatment” value in the test on Colo205 tumor xenograft stood at 237.13 mm^3.
On to `O=C(Nc1ccc(Oc2ccc3ncc(N4CCNCC4)nc3c2)cc1)Nc1ccc(Cl)c(C(F)(F)F)c1` [Compound C089, 1-(4-chloro-3-(trifluoromethyl)phenyl)-3-(4-((3-(piperazin-1-yl)quinoxalin-6-yl)oxy)phenyl)urea], for which the inhibition at 1 µM on BRAF V600E was more than 89%; on BRAF, less than 70%; at KDR (VEGFR2), more than 89%. Also, the 50% inhibitory concentration (IC50) in the test with A375 cells was less than 1000 nM; in the test with A549 cells, less than 2000 nM; with Colo205 cells, less than 1000 nM. In the test on Colo205 tumor xenograft, the “T/C (relative tumor growth rate)” value was found to be 79%. For the same compound, the “Tumor Volume Post-treatment” value in the test on Colo205 tumor xenograft is listed as 768.94 mm^3. The “Tumor Volume Pre-treatment” value in the test with Colo205 tumor xenograft stood at 233.30 mm^3.

The values are drawn from US10590106B2, “Certain chemical entities, compositions, and methods” (NeuPharma, Inc., priority 2012, dated 2020).
